In test [1] the target is T1, plasmin (Homo sapiens, UniProt P00747).
T1 construct: purchased Sigma-Aldrich (supplement); R&D Systems; host or cells: human plasma
Nature of the test: Activity-based profiling of plasmin (SDS-PAGE, streptavidin-HRP western blot). The format is binding. The note with it: 50 μM, 30 min, 37°C. On the procedure:
(§1) Samples of recombinant protease (trypsin, plasmin, thrombin, chymotrypsin, or HNE, as indicated in the relevant figure legends) were treated with each of the newly synthesized compounds at a concentration of 50 μM, for 30 min, at 37°C. A control sample (no ABP) was prepared by treating the recombinant protease with solvent vehicle (DMF) only, used to prepare the stock solution of each ABP. Samples were also pre-treated (±90°C for 30 min) before being incubated with each putative ABP. With trypsin and thrombin, further samples were prepared where Z-Arg^P-(OPh)2 or NAP559, respectively, was added 30 min prior to the addition of the ABP under examination. All treated samples were then denatured with SDS containing reducing treatment buffer (10 min at 95°C), followed by resolution by SDS-PAGE and subjected to Western blotting. Resolved proteins were then transferred onto the nitrocellulose membrane and labeled with streptavidin-HRP. The ABP–protease complex was then visualized following treatment with Luminata Forte HRP substrate.
FIGURE 8 Activity Based Profiling of Trypsin-like serine proteases. (A) trypsin was treated (±) with NAP830, for 30 min, at 37°C (± pretreatment with Z-Arg^P-(OPh)2). (B) thrombin (1 […]) was pre-treated with various concentrations of NAP559 (30 min, at 37°C) followed by treatment (±) with NAP858 for 30 min, at 37°C. (C) Plasmin was treated in turn with QUBTL1, NAP962 and NAP830, (± pre-heat inactivation at 95°C, for 10 min) for 30 min, at 37°C. […]
(§2) Following transfer, the extra protein binding sites on the membrane were blocked by addition of 3% (w/v) BSA in TBST (20 mM Tris, 137 mM NaCl, 1% (v/v) Tween 20, pH 7.6) and agitated gently at room temperature for 30 minutes. The biotin-labelled proteases were then detected by addition of Streptavidin-HRP (Vector Laboratories) in 3% (w/v) BSA in TBST at a concentration of 1:20000, for 1 hour at room temperature. […]

Test [2] deals with T1, plasmin. Also on record: method as in Martin and Walker (2017). The note with it: mean ± SD (n=2), ref Martin and Walker (2017); cited from earlier work.
In the next test the target is T2, trypsin (Sus scrofa, UniProt P00761).
T2 construct: purchased Sigma-Aldrich; host or cells: porcine pancreas
Nature of the test: Activity-based profiling of trypsin (SDS-PAGE, streptavidin-HRP western blot). The format is binding, porcine. The note with it: added 30 min prior to NAP830. How it is done:
as §1, with “The ABP–protease complex was then visualized following treatment with Luminata Forte HRP substrate.” left out
as §2

The next test addresses T3, neutrophil elastase (NE) (Homo sapiens, UniProt P08246).
T3 construct: purchased Calbiochem
T3 sequence (P08246 30-267): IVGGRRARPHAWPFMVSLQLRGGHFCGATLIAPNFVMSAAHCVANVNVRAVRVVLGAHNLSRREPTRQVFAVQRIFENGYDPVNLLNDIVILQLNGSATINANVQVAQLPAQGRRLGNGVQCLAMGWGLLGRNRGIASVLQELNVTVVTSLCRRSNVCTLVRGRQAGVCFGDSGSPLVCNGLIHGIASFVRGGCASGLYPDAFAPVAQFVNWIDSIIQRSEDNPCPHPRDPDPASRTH
Details: method as in Gilmore et al. (2009). The note with it: ref Gilmore et al. (2009); cited from earlier work.

T1 sequence (P00747 581-810 limits assumed): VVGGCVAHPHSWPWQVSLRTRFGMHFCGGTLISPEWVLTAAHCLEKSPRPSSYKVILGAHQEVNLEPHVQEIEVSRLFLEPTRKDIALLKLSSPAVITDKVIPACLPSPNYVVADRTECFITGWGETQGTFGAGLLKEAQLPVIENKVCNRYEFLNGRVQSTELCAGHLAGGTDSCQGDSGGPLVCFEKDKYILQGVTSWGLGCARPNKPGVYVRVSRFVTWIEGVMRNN
T1 sequence (P00747 97-580 partner limits assumed): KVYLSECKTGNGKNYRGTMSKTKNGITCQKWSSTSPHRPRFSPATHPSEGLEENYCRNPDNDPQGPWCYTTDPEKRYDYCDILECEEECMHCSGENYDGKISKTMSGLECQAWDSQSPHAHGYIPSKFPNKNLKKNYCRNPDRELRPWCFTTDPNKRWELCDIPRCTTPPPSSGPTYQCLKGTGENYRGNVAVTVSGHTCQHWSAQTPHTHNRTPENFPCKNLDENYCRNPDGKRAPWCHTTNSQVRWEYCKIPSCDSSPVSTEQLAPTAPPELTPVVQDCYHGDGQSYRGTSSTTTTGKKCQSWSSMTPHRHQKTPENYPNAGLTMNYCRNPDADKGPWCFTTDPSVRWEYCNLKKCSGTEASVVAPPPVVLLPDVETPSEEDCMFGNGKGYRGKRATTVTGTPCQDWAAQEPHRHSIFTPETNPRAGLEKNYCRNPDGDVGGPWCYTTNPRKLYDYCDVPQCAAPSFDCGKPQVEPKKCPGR
T2 sequence (P00761 9-231): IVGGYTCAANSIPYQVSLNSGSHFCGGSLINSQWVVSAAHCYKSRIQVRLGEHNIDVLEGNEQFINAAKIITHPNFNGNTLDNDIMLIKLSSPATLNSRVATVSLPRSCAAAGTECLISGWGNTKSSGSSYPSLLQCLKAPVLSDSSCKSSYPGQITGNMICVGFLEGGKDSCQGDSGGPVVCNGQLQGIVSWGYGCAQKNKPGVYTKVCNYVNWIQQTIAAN

Consider `N=C(N)NCCCC(NC(=O)CCC(=O)NCCCOCCOCCOCCCNC(=O)CCCCC1SCC2NC(=O)NC21)P(=O)(Oc1ccccc1)Oc1ccccc1` (stereo not drawn) [QUBTL1, biotin-PEG-succinyl-arginine diphenyl phosphonate], for which the “labelling of plasmin by ABP (western blot)” value at plasmin [1] is on record as “failed to detect any plasmin band”. Also, at plasmin [2], the Ki was 89 nM, the “k 3” value was 0.3 (± 0.05) min^−1 and the “k 3 / K i” value is recorded as 3.1 (± 0.2) × 10^6 M^−1 min^−1.

On to `NC(N)=NCCCC(NC(=O)OCc1ccccc1)P(=O)(Oc1ccccc1)Oc1ccccc1` (stereo not drawn) [Z-Arg^P-(OPh)2, reference compound], for which the “effect of pre-treatment of trypsin on signal detected by NAP830” value at trypsin was “quenching/diminution in the signal detected by NAP830”.

Take “biotin-PEG-succinyl-Val^P-(OPh)2 [QUBEL1]”: the “k 3 / K i” value at neutrophil elastase (NE) was 12900 M⁻¹ min⁻¹.

These data come from publication PMC9555310, “Novel inhibitors and activity-based probes targeting serine proteases” (Frontiers in Chemistry, 2022).
